{"source": "paper PMC10141516", "about": "(Pharmaceutics, 2023)", "test": "Equilibrium solubility test (HPLC)", "settings": "for solubility thermodynamic at 12 h / solubility thermodynamic at 24 h: thermodynamic from solid", "description": "The column used was an Agilent C18 column (5.0 μm, 4.6 × 150 mm). The mobile phase and diluted solution of the content and dissolution studies analyses were prepared with 0.5% triethylamine buffer (v/v, pH 6.8 adjusted with 85% phosphoric acid) and acetonitrile at a ratio of 7:3 (v/v). The mobile phase was filtered through a 0.45-μm polypropylene membrane filter and degassed via sonication. The wavelength, flow rate, and injection volume were set to 205 nm, 1.5 mL/min, and 20 μL, respectively. In the case of the content and dissolution studies, the mobile phase was constantly flowed for 18 min via an isocratic elution method and analyzed.\nThe equilibrium solubility test was used to calculate the input amount through the apparent solubility test result, and an excess of the API was placed in each beaker and stirred at 400 rpm. At 0, 12, and 24 h immediately after the overdose, 2 mL samples were taken and filtered through a 0.45-μm regenerated cellulose syringe filter. The supernatant of the filtered solution was taken and diluted with a content analysis diluted solution. […] A calibration test was performed, and the sample was diluted with a diluted solution and prepared at a concentration of 0.05–1 mg/mL.", "key": {"[1]": {"settings": "buffer solution, pH 3, aqueous buffer"}, "[2]": {"settings": "buffer solution, pH 4, aqueous buffer"}, "[3]": {"settings": "buffer solution, pH 5, aqueous buffer"}, "[4]": {"settings": "buffer solution, pH 6, aqueous buffer"}, "[5]": {"settings": "buffer solution, pH 6.8, aqueous buffer"}, "[6]": {"settings": "buffer solution, pH 7, aqueous buffer"}, "[7]": {"settings": "buffer solution, pH 8, aqueous buffer"}, "[8]": {"settings": "buffer solution, pH 9, aqueous buffer"}, "[9]": {"settings": "buffer solution, pH 10, aqueous buffer"}, "[10]": {"settings": "pH 1.2 buffer solution, pH 1.2, aqueous buffer"}, "[11]": {"settings": "pH 2.0 buffer solution, pH 2, aqueous buffer"}, "[12]": {"settings": "pH 12.0 buffer solution, pH 12, aqueous buffer"}}, "data": [{"compound": "CCOc1ccc(Cc2cc([C@@H]3O[C@H](CO)[C@@H](O)[C@H](O)[C@H]3O)ccc2Cl)cc1", "note": "[Dapagliflozin, (1S)-1,5-Anhydro-1-C-[4-chloro-3-[(4-ethoxyphenyl)methyl]phenyl]-D-glucitol (S)-propane-1,2-diol (1:1) monohydrate]", "values": [{"measurement": "amount dissolved in dissolution medium", "setting": "900 mL of dissolution medium", "value": "more than 0.33 mg per 1 mL"}, {"measurement": "solubility thermodynamic at 12 h", "setting": "[1]", "value": 400, "unit": "µg/mL"}, {"measurement": "solubility thermodynamic at 24 h", "setting": "[1]", "value": 400, "unit": "µg/mL"}, {"measurement": "solubility thermodynamic at 12 h", "setting": "[2]", "value": 370, "unit": "µg/mL"}, {"measurement": "solubility thermodynamic at 24 h", "setting": "[2]", "value": 370, "unit": "µg/mL"}, {"measurement": "solubility thermodynamic at 12 h", "setting": "[3]", "value": 370, "unit": "µg/mL"}, {"measurement": "solubility thermodynamic at 24 h", "setting": "[3]", "value": 370, "unit": "µg/mL"}, {"measurement": "solubility thermodynamic at 12 h", "setting": "[4]", "value": 320, "unit": "µg/mL"}, {"measurement": "solubility thermodynamic at 24 h", "setting": "[4]", "value": 320, "unit": "µg/mL"}, {"measurement": "solubility thermodynamic at 12 h", "setting": "[5]", "value": 330, "unit": "µg/mL"}, {"measurement": "solubility thermodynamic at 24 h", "setting": "[5]", "value": 330, "unit": "µg/mL"}, {"measurement": "solubility thermodynamic at 12 h", "setting": "[6]", "value": 320, "unit": "µg/mL"}, {"measurement": "solubility thermodynamic at 24 h", "setting": "[6]", "value": 320, "unit": "µg/mL"}, {"measurement": "solubility thermodynamic at 12 h", "setting": "[7]", "value": 350, "unit": "µg/mL"}, {"measurement": "solubility thermodynamic at 24 h", "setting": "[7]", "value": 350, "unit": "µg/mL"}, {"measurement": "solubility thermodynamic at 12 h", "setting": "[8]", "value": 340, "unit": "µg/mL"}, {"measurement": "solubility thermodynamic at 24 h", "setting": "[8]", "value": 340, "unit": "µg/mL"}, {"measurement": "solubility thermodynamic at 12 h", "setting": "[9]", "value": 340, "unit": "µg/mL"}, {"measurement": "solubility thermodynamic at 24 h", "setting": "[9]", "value": 340, "unit": "µg/mL"}, {"measurement": "solubility thermodynamic at 12 h", "setting": "buffer solution, pH 11, aqueous buffer", "value": 210, "unit": "µg/mL"}, {"measurement": "solubility thermodynamic at 12 h", "setting": "deionized water, water", "value": 290, "unit": "µg/mL"}, {"measurement": "solubility thermodynamic at 24 h", "setting": "deionized water, water", "value": 290, "unit": "µg/mL"}, {"measurement": "solubility thermodynamic at 12 h", "setting": "[10]", "value": 340, "unit": "µg/mL"}, {"measurement": "solubility thermodynamic at 24 h", "setting": "[10]", "value": 340, "unit": "µg/mL"}, {"measurement": "solubility thermodynamic at 12 h", "setting": "[11]", "value": 350, "unit": "µg/mL"}, {"measurement": "solubility thermodynamic at 24 h", "setting": "[11]", "value": 350, "unit": "µg/mL"}, {"measurement": "solubility thermodynamic at 24 h", "setting": "pH 11.0 buffer solution, pH 11, aqueous buffer", "value": 210, "unit": "µg/mL"}, {"measurement": "solubility thermodynamic at 12 h", "setting": "[12]", "value": 240, "unit": "µg/mL"}, {"measurement": "solubility thermodynamic at 24 h", "setting": "[12]", "value": 240, "unit": "µg/mL"}]}, {"compound": "N[C@@H](CC(=O)N1CCn2c(nnc2C(F)(F)F)C1)Cc1cc(F)c(F)cc1F.O.O=P(O)(O)O", "note": "[Sitagliptin, (R)-3-Amino-1-(3-(trifluoromethyl)-5,6-dihydro-[1,2,4]triazolo[4,3-a]pyrazin-7(8H)-yl)-4-(2,4,5-trifluorophenyl)butan-1-one phosphate monohydrate]", "values": [{"measurement": "solubility thermodynamic at 12 h", "setting": "pH 1.2, aqueous buffer", "value": 1940, "unit": "µg/mL"}, {"measurement": "solubility thermodynamic at 24 h", "setting": "pH 1.2, aqueous buffer", "value": 1940, "unit": "µg/mL"}, {"measurement": "solubility thermodynamic at 12 h", "setting": "pH 2, aqueous buffer", "value": 3110, "unit": "µg/mL"}, {"measurement": "solubility thermodynamic at 24 h", "setting": "pH 2, aqueous buffer", "value": 3110, "unit": "µg/mL"}, {"measurement": "solubility thermodynamic at 12 h", "setting": "pH 3, aqueous buffer", "value": 1700, "unit": "µg/mL"}, {"measurement": "solubility thermodynamic at 24 h", "setting": "pH 3, aqueous buffer", "value": 1700, "unit": "µg/mL"}, {"measurement": "solubility thermodynamic at 12 h", "setting": "pH 4, aqueous buffer", "value": 1610, "unit": "µg/mL"}, {"measurement": "solubility thermodynamic at 24 h", "setting": "pH 4, aqueous buffer", "value": 1610, "unit": "µg/mL"}, {"measurement": "solubility thermodynamic at 12 h", "setting": "pH 5, aqueous buffer", "value": 1510, "unit": "µg/mL"}, {"measurement": "solubility thermodynamic at 24 h", "setting": "pH 5, aqueous buffer", "value": 1520, "unit": "µg/mL"}, {"measurement": "solubility thermodynamic at 12 h", "setting": "pH 6, aqueous buffer", "value": 1160, "unit": "µg/mL"}, {"measurement": "solubility thermodynamic at 24 h", "setting": "pH 6, aqueous buffer", "value": 1160, "unit": "µg/mL"}, {"measurement": "solubility thermodynamic at 12 h", "setting": "pH 6.8, aqueous buffer", "value": 2670, "unit": "µg/mL"}, {"measurement": "solubility thermodynamic at 12 h", "setting": "pH 7, aqueous buffer", "value": 2760, "unit": "µg/mL"}, {"measurement": "solubility thermodynamic at 24 h", "setting": "pH 7, aqueous buffer", "value": 2760, "unit": "µg/mL"}, {"measurement": "solubility thermodynamic at 12 h", "setting": "pH 8, aqueous buffer", "value": 1420, "unit": "µg/mL"}, {"measurement": "solubility thermodynamic at 24 h", "setting": "pH 8, aqueous buffer", "value": 1430, "unit": "µg/mL"}, {"measurement": "solubility thermodynamic at 12 h", "setting": "pH 9, aqueous buffer", "value": 1500, "unit": "µg/mL"}, {"measurement": "solubility thermodynamic at 24 h", "setting": "pH 9, aqueous buffer", "value": 1500, "unit": "µg/mL"}, {"measurement": "solubility thermodynamic at 12 h", "setting": "pH 10, aqueous buffer", "value": 960, "unit": "µg/mL"}, {"measurement": "solubility thermodynamic at 24 h", "setting": "pH 10, aqueous buffer", "value": 970, "unit": "µg/mL"}, {"measurement": "solubility thermodynamic at 12 h", "setting": "pH 11, aqueous buffer", "value": 1440, "unit": "µg/mL"}, {"measurement": "solubility thermodynamic at 24 h", "setting": "pH 11, aqueous buffer", "value": 1440, "unit": "µg/mL"}, {"measurement": "solubility thermodynamic at 12 h", "setting": "pH 12, aqueous buffer", "value": 1610, "unit": "µg/mL"}, {"measurement": "solubility thermodynamic at 24 h", "setting": "pH 12, aqueous buffer", "value": 1600, "unit": "µg/mL"}, {"measurement": "solubility thermodynamic at 12 h", "setting": "water", "value": 1420, "unit": "µg/mL"}, {"measurement": "solubility thermodynamic at 24 h", "setting": "water", "value": 1420, "unit": "µg/mL"}]}]}
